Test results taken from patent US6365621B1, “Remedies or preventives for intractable epilepsy” (Pharmaceutical Co., Ltd., priority 1998, dated 2002).

Tested on: amygdala kindling development in rats
Test: Development/establishment of amygdala kindling under daily dosing
Type: in vivo, rat
Procedure: The present inventors have studied the effects of nefiracetam on an development process of the amygdaloid kindled seizures and on establishment of kindling through a method described below, and have determined the efficacy of nefiracetam. The evolution process of kindling is tested by use of rats, in which electrodes are placed in the amygdala and kindling stimulation (50 Hz sine wave, duration of 1 second, once per day) is applied at specific intervals for restoration. On the first day, an afterdischarge-provocation threshold is determined without administration of a pharmaceutical. From the second day, kindling stimulation having intensity of the afterdischarge-provocative threshold is applied to rats administered with a specimen at a variety of administration doses, to thereby investigate an effect of the specimen on the evolution process of kindling.
In this test, the following parameters were evaluated: seizure stage in the process of development of amygdala kindling and afterdischarge duration at the stimulated amygdala.
[Method] Male Wistar rats (5 to 6 weeks old, weight: 200-250 g, Tokyo Jikken Dobutsu) were used. For each rat, in a manner similar to that in Example 1, there were performed anesthetization, setting of an electrode on the amygdala, and fixation of the electrode at the cranial bone. After a recovery period of at least two weeks, kindling stimulation was initiated.
Kindling stimulation was performed for one second per day with a sine wave of 50 Hz. On the first day, the afterdischarge threshold was determined, and from the second day, kindling stimulation was performed at the intensity of the threshold. On the first day, nefiracetam was not administered, in order to determine the threshold. For twenty days from the second day, a dose of nefiracetam (45, 90, or 180 mg/kg) was administered orally, and then kindling stimulation was performed 90 minutes after administration. After nefiracetam was administered for twenty days, kindling stimulation was performed without administration for an additional seven days.

[1] = Test 1, 90 mg/kg p.o. daily for twenty days
[2] = Test 2, 45 mg/kg p.o. daily for twenty days
[3] = Test 2, 180 mg/kg p.o. daily for twenty days

Cc1cccc(C)c1NC(=O)CN1CCCC1=O [nefiracetam, N-(2,6-dimethylphenyl)-2-(2-oxo-1-pyrrolidinyl)acetamide]
Day on which stage 5 was reached (90 mg/kg, typical rat (control: ninth day)): tenth day | Day on which seizure stage began to progress (90 mg/kg, typical rat (control: third day)): sixth day | Number of stimulations until the completion of stage 5 versus control rats (45, 90 or 180 mg/kg p.o. daily): no difference was observed | Number of samples showing an increase in afterdischarge threshold/total samples [1]: 3/6 | Number of samples showing stage 5 intermittently/total samples [1]: 4/6 | Number of samples showing an increase in afterdischarge threshold/total samples [2]: 0/4 | Number of samples showing stage 5 intermittently/total samples [2]: 0/4 | Number of samples showing an increase in afterdischarge threshold/total samples [3]: 2/6 | Number of samples showing stage 5 intermittently/total samples [3]: 5/6 | Stimulation intensity at which afterdischarge was shown (one nefiracetam-administered rat, eleventh day): 150 μA | Seizure stage (one nefiracetam-administered rat, eleventh day, 150 μA): 4
